Reference: patent US20240059693A1, “FUSED BICYCLIC PYRAZOLE DERIVATIVES AND METHODS OF USE THEREOF FOR THE TREATMENT OF HERPESVIRUSES” (Merck Sharp & Dohme LLC, priority 2020, published 2024)
Like-named read-outs stand apart in the source and are kept apart here.

Tests used:
[1] = target: T1, varicella zoster virus DNA polymerase (Varicella-zoster virus, UniProt P09252); assay: VZV polymerase assay (AlphaLISA); assay type: biochemical; settings: VZV DNA polymerase 0.4 nM, 60 minutes at 37° C.
T1 construct: made in house; host or cells: SF21 insect cells (baculovirus vector)
T1 sequence (P09252 whole entry): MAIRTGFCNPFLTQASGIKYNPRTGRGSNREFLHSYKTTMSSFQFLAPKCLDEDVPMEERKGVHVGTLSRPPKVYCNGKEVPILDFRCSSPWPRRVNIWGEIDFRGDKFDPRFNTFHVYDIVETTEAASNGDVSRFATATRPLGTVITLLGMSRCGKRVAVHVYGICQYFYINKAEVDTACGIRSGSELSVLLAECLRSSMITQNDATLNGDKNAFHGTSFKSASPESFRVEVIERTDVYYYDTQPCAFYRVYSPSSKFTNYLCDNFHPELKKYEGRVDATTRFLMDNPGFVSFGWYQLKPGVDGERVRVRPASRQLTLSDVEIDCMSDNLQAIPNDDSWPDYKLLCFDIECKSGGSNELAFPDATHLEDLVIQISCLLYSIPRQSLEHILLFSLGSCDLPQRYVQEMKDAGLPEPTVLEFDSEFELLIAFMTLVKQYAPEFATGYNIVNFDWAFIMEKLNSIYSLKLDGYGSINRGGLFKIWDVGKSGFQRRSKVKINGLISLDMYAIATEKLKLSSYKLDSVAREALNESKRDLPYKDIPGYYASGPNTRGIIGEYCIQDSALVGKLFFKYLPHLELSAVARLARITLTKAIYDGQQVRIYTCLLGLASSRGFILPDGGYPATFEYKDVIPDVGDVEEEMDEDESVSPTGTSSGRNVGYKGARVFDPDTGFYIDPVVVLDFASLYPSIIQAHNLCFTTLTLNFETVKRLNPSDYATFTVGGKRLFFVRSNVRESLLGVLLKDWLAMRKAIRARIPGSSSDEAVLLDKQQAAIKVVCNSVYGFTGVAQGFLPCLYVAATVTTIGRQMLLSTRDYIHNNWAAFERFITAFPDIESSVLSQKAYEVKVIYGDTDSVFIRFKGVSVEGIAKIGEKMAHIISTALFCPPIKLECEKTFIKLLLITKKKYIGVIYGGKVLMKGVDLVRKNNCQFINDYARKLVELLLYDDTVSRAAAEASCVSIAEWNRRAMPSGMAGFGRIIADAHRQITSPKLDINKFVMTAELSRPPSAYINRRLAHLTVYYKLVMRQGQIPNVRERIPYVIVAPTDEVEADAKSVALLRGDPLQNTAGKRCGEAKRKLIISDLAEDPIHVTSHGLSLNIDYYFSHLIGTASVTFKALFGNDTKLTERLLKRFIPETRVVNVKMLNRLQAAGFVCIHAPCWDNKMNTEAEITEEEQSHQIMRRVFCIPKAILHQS
Method: (§1) Human cytomegalovirus and varicella zoster virus DNA polymerases were expressed via baculovirus vector in SF21 cells and purified. Heterodimeric nucleic acid substrate used in the herpesvirus polymerase reactions was generated by annealing a 59-mer template to a 17-mer digoxigenin-labeled primer. Polymerase (HCMV final concentration of 0.2 nM; VZV final concentration of 0.4 nM) was combined with an inhibitor compound or DMSO in assay buffer (10 mM HEPES, pH 7.5, 25 mM KCl, 25 mM NaCl, 5 mM MgCl2, 5% glycerol, 0.67 mg/ml bovine serum albuminutes, and 1 mM tris(2-carboxyethyl)phosphine), and this mixture was pre-incubated for 30 minutes at room temperature in 384-well microtiter plates. The polymerization reaction was initiated by the addition of template/primer substrate (final concentration: 1.6 nM), and dNTPs (final concentration: 24 nM dCTP, 24 nMdGTP, 16 nM dATP, 16 nM dTTP, and 0.8 nM biotin-dUTP). After 60 minutes incubation at 37° C., reactions were terminated with quench buffer (25 mM HEPES pH 7.5, 100 mM NaCl, 0.25% Tween-20, 12 mM EDTA, and 1 mg/ml bovine serum albumin). Incorporation of biotinylated UTP was detected with 2.5-ug/ml anti-DIG AlphaLISA acceptor beads and 5-10 ug/ml streptavidin AlphaLISA donor beads (Perkin Elmer). Compound effects were normalized to the window defined by the controls (DMSO only and pre-quenched wells) and were fit using a 4-parameter algorithm to report an IC50.

[2] = target: T2, Human cytomegalovirus DNA polymerase (Human cytomegalovirus, UniProt P08546); assay: HCMV polymerase assay (AlphaLISA); assay type: biochemical; settings: HCMV DNA polymerase 0.2 nM, 60 minutes at 37° C.; read-out: CMV (IC50)
T2 construct: made in house; host or cells: SF21 insect cells (baculovirus vector)
T2 sequence (P08546 whole entry): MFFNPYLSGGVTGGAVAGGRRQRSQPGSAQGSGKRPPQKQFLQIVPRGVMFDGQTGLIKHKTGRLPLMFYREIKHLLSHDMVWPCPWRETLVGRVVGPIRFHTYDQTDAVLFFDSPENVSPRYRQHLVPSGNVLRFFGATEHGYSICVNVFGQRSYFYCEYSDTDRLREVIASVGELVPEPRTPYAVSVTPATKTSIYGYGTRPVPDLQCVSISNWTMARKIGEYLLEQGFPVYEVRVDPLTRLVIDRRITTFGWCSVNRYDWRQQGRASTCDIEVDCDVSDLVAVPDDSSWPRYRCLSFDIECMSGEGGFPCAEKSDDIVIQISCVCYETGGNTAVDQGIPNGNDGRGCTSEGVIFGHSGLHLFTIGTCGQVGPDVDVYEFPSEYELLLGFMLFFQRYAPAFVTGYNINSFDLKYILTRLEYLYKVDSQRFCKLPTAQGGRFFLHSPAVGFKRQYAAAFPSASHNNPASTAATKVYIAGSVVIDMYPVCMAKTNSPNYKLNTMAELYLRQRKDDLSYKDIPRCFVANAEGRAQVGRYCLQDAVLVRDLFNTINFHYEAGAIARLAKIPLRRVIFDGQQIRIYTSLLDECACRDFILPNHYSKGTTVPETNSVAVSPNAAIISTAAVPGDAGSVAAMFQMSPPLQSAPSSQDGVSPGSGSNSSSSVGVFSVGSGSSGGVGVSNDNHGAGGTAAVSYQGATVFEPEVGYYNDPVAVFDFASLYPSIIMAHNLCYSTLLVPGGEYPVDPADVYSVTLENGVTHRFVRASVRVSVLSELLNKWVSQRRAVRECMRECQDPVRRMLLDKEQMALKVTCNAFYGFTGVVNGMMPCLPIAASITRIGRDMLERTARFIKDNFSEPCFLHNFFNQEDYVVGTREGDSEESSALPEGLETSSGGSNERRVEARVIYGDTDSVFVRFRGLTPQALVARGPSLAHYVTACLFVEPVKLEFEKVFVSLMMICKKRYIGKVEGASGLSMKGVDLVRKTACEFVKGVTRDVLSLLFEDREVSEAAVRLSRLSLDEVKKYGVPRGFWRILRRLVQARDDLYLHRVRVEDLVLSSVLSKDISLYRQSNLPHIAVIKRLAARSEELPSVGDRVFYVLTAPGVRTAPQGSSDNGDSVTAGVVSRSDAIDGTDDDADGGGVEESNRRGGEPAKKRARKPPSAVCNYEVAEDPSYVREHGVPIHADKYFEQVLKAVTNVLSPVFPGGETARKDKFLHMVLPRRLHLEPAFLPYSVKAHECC
Method: as §1

HSV2 = assay: Viral qPCR assay, HSV2 in MRC5 cells; assay type: cell-based, Herpes Simplex Virus type 2; settings: read-out: HSV2 MRC5 Cell (EC50)
Method: (§2) MRCS cells, Vero cells, and MeWo cells were obtained from ATCC and were maintained at 37° C./5% CO2/90% relative humidity in Minimal Essential Medium with 10% fetal bovine serum, […] L-glutamine, 100 units/ml penicillin and 100 ug/ml streptomycin. Assay plates were prepared by dispensing compounds dissolved in DMSO into wells of 384 well collagen-coated plates using an ECHO acoustic dispenser. Each compound was tested in a 10-point, serial 3-fold dilution. Controls included uninfected cells and infected cells treated only with DMSO. Assays were initiated by mixing selected cells, in suspension, with virus, and dispensing 50 μl/well infected cells to pre-plated compounds. Plates were incubated at 37° C./5% CO2/90% relative humidity for ˜72 hrs to permit genomic replication, and infected cells were lysed by the addition of an equal volume of lysis buffer (10 mM Tris-HCl, pH8, 50 mM KCl, 2 mM MgCl2, 0.45% NP-40, 0.45% Tween-20, and 100 μg/ml proteinase K). An aliquot of the lysate was transferred to a 384-well PCR plate and incubated at 56° C. for 1 hour and then at 95° C. for 10 min. Levels of a viral gene and of the cellular control, PPIA (Thermo Fisher Assay ID=Hs04194521_s1), were measured in separate 10 μL qPCR assays using TaqMan® Gene Expression Master Mix (Applied Biosystems), and an 7900HT Fast Real-Time PCR System with 384-Well Block Module. 7-point, serial 10-fold dilutions of a plasmid standard were run on each plate to generate a standard curve, and genome copies numbers were calculated by plotting experimental Ct onto linear regression of the standard curve. Viral genome copy numbers were normalized by cellular control copy number, and compound effects were normalized to the window defined by the controls. Calculated % effects were fit using a 4-parameter algorithm, and EC50 was reported.
as §2, with “gene” for “gene and of the cellular control, PPIA (Thermo Fisher Assay ID=Hs04194521_s1),”, “in” for “in separate”, “Compound effects on viral” for “Viral”, “number” for “numbers were normalized by cellular control copy number, and compound effects”

VZV = assay: Viral qPCR assay, VZV in MRC5 cells; assay type: cell-based, varicella zoster virus; settings: read-out: VZV MRC5 Cell (IC50)
Method: as §2
as §2, with “gene” for “gene and of the cellular control, PPIA (Thermo Fisher Assay ID=Hs04194521_s1),”, “in” for “in separate”, “Compound effects on viral” for “Viral”, “number” for “numbers were normalized by cellular control copy number, and compound effects”
(§3) VZV: Strain Street was maintained as an infected cell stock in MRC-5 cells. It was assayed in MeWo or MRCS cells and was used at 0.04-0.1 pfu/cell. The assays were performed in growth medium. Primer-probe set was Thermo Fisher Assay ID=AIPAEXQ. HSV-1: Strain F Street was assayed in Vero or MRCS cells and was used at 0.0005-0.004 pfu/cell in growth medium. Primer-probe set was Thermo Fisher Assay ID=AIBJZIB

HSV-1 Strain F = assay: Viral qPCR assay, HSV-1 in MRC5 cells; assay type: cell-based, Herpes Simplex Virus type 1; settings: read-out: HSV1 MRC5 Cell (EC50)
Method: as §2
as §2, with “gene” for “gene and of the cellular control, PPIA (Thermo Fisher Assay ID=Hs04194521_s1),”, “in” for “in separate”, “Compound effects on viral” for “Viral”, “number” for “numbers were normalized by cellular control copy number, and compound effects”
as §3

HCMV Strain AD169 = assay: Viral qPCR assay, HCMV in MRC-5 cells; assay type: cell-based, Human cytomegalovirus; settings: read-out: CMV MRC5 Cell (EC50)
Method: as §2
as §2, with “gene” for “gene and of the cellular control, PPIA (Thermo Fisher Assay ID=Hs04194521_s1),”, “in” for “in separate”, “Compound effects on viral” for “Viral”, “number” for “numbers were normalized by cellular control copy number, and compound effects”
HCMV: Strain AD169 Street was assayed in MRC-5 cells and was used at 0.05-0.1 pfu/cell. The assays were performed in either growth media or in the same media with 50% fetal bovine serum. Primer-probe set was Thermo Fisher Assay ID=AIFATFK.

[3] = Human alphaherpesvirus 2, MRC5, 72 h
[4] = Human alphaherpesvirus 3, MRC5, 72 h
[5] = Human alphaherpesvirus 1, MRC5, 72 h
[6] = Human betaherpesvirus 5, AD169, MRC5, 72 h

Row | IC50 [1] [nM] | IC50 [2] [nM] | SMILES | EC50 (HSV2; [3]) [nM] | IC50 (VZV; [4]) [nM] | EC50 (HSV-1 Strain F; [5]) [nM] | EC50 (HCMV Strain AD169; [6]) [nM] | EC50 (HSV2; ~72 hrs) [nM] | IC50 (VZV; ~72 hrs) [nM] | EC50 (HSV-1 Strain F; ~72 hrs) [nM] | EC50 (HCMV Strain AD169; MRC5 cells, ~72 hrs) [nM]
1 | 289 | 1060 | Cn1nc(C(=O)NCc2ccc(Cl)cc2)c2c1CC(CC1CCC(=O)N1)C2 (single isomer, unassigned) [Compound 128] | – | – | – | – | – | – | – | –
2 | – | 23 | Cc1csc(-n2nc(C(=O)NCc3ccc(Cl)cc3)c3c2CN(C[C@H]2CCC(=O)N2)C3)n1 [Compound 12] | 44.8 | 220 | 160 | 175 | – | – | – | –
3 | – | 25.8 | O=C1CC[C@H](CN2Cc3c(C(=O)NCc4ccc(Cl)cc4)nn(-c4ccccn4)c3C2)N1 [Compound 13] | 74.6 | 207 | 284 | 547 | – | – | – | –
4 | – | 31.2 | CCOc1cnc(-n2nc(C(=O)NCc3ccc(Cl)cc3)c3c2CN(C[C@H]2CCC(=O)N2)C3)nc1 [Compound 16] | 74.5 | 208 | 233 | 298 | – | – | – | –
5 | – | 71.1 | O=C1CC[C@H](CN2Cc3c(C(=O)NCc4ccc(Cl)cc4)nn(-c4ncc5ccccc5n4)c3C2)N1 [Compound 18] | 108 | 368 | 229 | 555 | – | – | – | –
6 | – | 90.6 | Cc1cn(C)c(-n2nc(C(=O)NCc3ccc(Cl)cc3)c3c2CN(C[C@H]2CCC(=O)N2)C3)n1 [Compound 19] | 333 | 535 | 650 | 399 | – | – | – | –
7 | – | 115 | Cn1ccnc1-n1nc(C(=O)NCc2ccc(Cl)cc2)c2c1CN(C[C@H]1CCC(=O)N1)C2 [Compound 20] | 143 | 309 | 449 | 448 | – | – | – | –
8 | – | 11 | O=C1CC[C@H](CN2Cc3c(C(=O)NCc4ccc(Cl)cc4)nn(-c4cnsn4)c3C2)N1 [Compound 22] | – | – | – | – | 251 | 413 | 231 | 313
9 | – | 17.2 | O=C1CC[C@H](CN2Cc3c(C(=O)NCc4ccc(Cl)cc4)nn(-c4ncco4)c3C2)N1 [Compound 23] | 136 | 325 | 224 | 130 | – | – | – | –
10 | – | 15.2 | O=C1CC[C@H](CN2Cc3c(C(=O)NCc4ccc(Cl)cc4)nn(-c4ncccn4)c3C2)N1 [Compound 28] | – | – | – | – | 89.5 | 210 | 139 | 108
11 | – | 26.9 | O=C1CC[C@@H](CN2Cc3c(C(=O)NCc4ccc(Cl)cc4)nn(-c4ncccn4)c3C2)N1 [Compound 31] | 1410 | 1470 | 1040 | 435 | – | – | – | –
12 | – | 25.9 | O=C1CC[C@@H](CN2Cc3c(C(=O)NCc4ccc(Cl)cc4)nn(-c4nccs4)c3C2)N1 [Compound 42] | 1100 | 1050 | 996 | 940 | – | – | – | –
13 | – | 37.8 | O=C1CC[C@@H](CN2Cc3c(C(=O)NCc4ccc(Cl)cc4)nn(C(F)F)c3C2)N1 [Compound 45] | 1040 | 1030 | 1990 | 798 | – | – | – | –
14 | – | 38.1 | Cn1nc(C(=O)NCc2ccc(Cl)cc2)c2c1CN(C[C@@H]1CCC(=O)N1)C2 [Compound 47] | 611 | 657 | 878 | 328 | – | – | – | –
15 | – | 252 | Cn1nc(C(=O)NCc2ccc(Cl)cc2)c2c1CN(C[C@H]1CC(F)C(=O)N1)C2 (stereo partly shown) [Compound 78] | 2220 | 2870 | 3030 | 2880 | – | – | – | –
16 | – | 69.6 | Cn1nc(C(=O)NCc2ccc(Cl)cc2)c2c1CN(C[C@@H]1CC(F)C(=O)N1)C2 (stereo partly shown) [Compound 79] | 935 | 1170 | 1180 | 232 | – | – | – | –
17 | – | 60.3 | Cn1nc(C(=O)NCc2ccc(Cl)cc2)c2c1CN(C[C@@H]1CC(F)(F)C(=O)N1)C2 [Compound 82] | 1020 | 1450 | 2880 | 250 | – | – | – | –
18 | – | 31.7 | CCC(C1CCC(=O)N1)N1Cc2c(C(=O)NCc3ccc(Cl)cc3)nn(C)c2C1 (stereo not shown) [Compound 90] | – | – | – | – | 1180 | 1230 | 1320 | 212
19 | – | 127 | Cn1nc(C(=O)NCc2ccc(Cl)cc2)c2c1CN(CC13CC1CC(=O)N3)C2 (stereo not shown) [Compound 95] | 3720 | 4550 | 3300 | 632 | – | – | – | –
20 | – | 5.07 | O=C1N[C@@H](CN2Cc3c(C(=O)NCc4ccc(Cl)cc4)nn(C(F)F)c3C2)CO1 [Compound 99] | 43.2 | 53.1 | 79.5 | 60.5 | – | – | – | –
21 | – | 57.9 | CC1c2c(c(C(=O)NCc3ccc(Cl)cc3)nn2C)CN1C(C)C1CCC(=O)N1 (stereo not shown) [Compound 111] | – | – | – | – | 248 | 402 | 557 | 125
22 | – | 105 | CC1c2c(c(C(=O)NCc3ccc(Cl)cc3)nn2C)CN1C(C)C1CCC(=O)N1 (stereo not shown) [Compound 112] | – | – | – | – | 233 | 263 | 294 | 148
23 | – | 141 | Cn1nc(C(=O)NCc2ccc(Cl)cc2)c2c1C1(CCC1)N(C[C@H]1CCC(=O)N1)C2 [Compound 124] | – | – | – | – | 2350 | 2160 | 3360 | 581
